Experiments:
Assay type in all cases: in vivo
[1] = test system: ORYZA SATIVA, L. TEBONNET; test: Postemergence herbicidal evaluation, ORYSAT (Rice, Tebonnet); set-up: key: 0-9 visual rating scale vs untreated control
Procedure: In the tests, seedling plants are grown in jiffy flats for about two weeks. The test compounds are dispersed in 50/50 acetone/water mixtures containing 0.5% TWEEN®20, a polyoxyethylene sorbitan monolaurate surfactant of Atlas Chemical Industries, in sufficient quantities to provide the equivalent of about 0.125 kg to 0.500 kg per hectare of active compound when applied to the plants through a spray nozzle operating at 40 psi for a predetermined time. After spraying, the plants are placed on greenhouse benches and are cared for in the usual manner, commensurate with conventional greenhouse practices. From four to five weeks after treatment, the seedling plants are examined and rated according to the rating system set forth below. Where more than one test is involved for a given compound, the data are averaged.
Plant species employed in these evaluations are reported by header abbreviation, common name and scientific name.
Results of herbicide evaluation are expressed on a rating scale (0-9). The scale is based upon a visual observation of plant stand, vigor, malformation, size, chlorosis and overall plant appearance as compared with a control.

[2] = test system: ZEA MAYS L.; test: Preemergence herbicidal evaluation, ZEAMX (Corn, Field)
Procedure, shortened: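 Corn (Zea mays) seeds were mixed with potting soil and planted on about one inch of soil in pint cups, then treated preemergence. Cups were kept on greenhouse benches, watered and maintained conventionally, and after four to five weeks were visually rated on a 0-9 scale versus an untreated control.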

[3] = test system: ECHINOCHLOA ORYZOIDES (ARD.)FRITSCH; test: Preemergence weed control under flooded paddy conditions, ECHORC (Watergrass (Calif.)); conditions: pre-weed
Procedure, shortened: (§1)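 Flooded paddy preemergence test: seeds/propagating organs in top 0.5 cm silt loam, water held 1.5-3 cm above soil. Dosing by pipette into flood water, aqueous/acetone 50/50 v/v, ~0.5, 0.25, 0.125, 0.063 kg/ha a.i. Greenhouse; read at 3-4 wk, 0-9 visual scale.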

[4] = test system: CASSIA OBTUSIFOLIA, L.; test: Postemergence herbicidal evaluation, CASOB (Sicklepod); set-up: key to CASOB rating / Herbicidal effect rating, CASOB / CASOB: 0-9 visual rating scale vs untreated control;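 further: higher means more injury with 8 approaching complete kill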
Procedure, shortened: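 Greenhouse postemergence test. Seedlings (~2 wk) sprayed at 40 psi; dose ~0.125–0.500 kg/ha in acetone/water (1:1), 0.5% TWEEN 20. Scored 0–9 at 4–5 wk.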

[5] = test system: GLYCINE MAX(L) MERR. CV. WILLIAMS; test: Postemergence herbicidal evaluation, GLXMAW (Soybean, Williams); set-up: key to GLXMAW rating / Herbicidal effect rating, GLXMAW / GLXMAW: 0-9 visual rating scale vs untreated control
Procedure, shortened: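 Soybean seedlings (Williams) were raised in jiffy flats for roughly two weeks, then sprayed postemergence through a nozzle at 40 psi with test compound dispersed in 50/50 acetone/water containing 0.5% TWEEN®20. Treated plants were kept on greenhouse benches under normal care and visually rated on a 0-9 scale four to five weeks later.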

[6] = test system: CASSIA OBTUSIFOLIA, L.; test: Preemergence herbicidal evaluation, CASOB (Sicklepod)
Procedure, shortened: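 Seeds of various monocot and dicot plants, including sicklepod, were each mixed with potting soil and sown on roughly one inch of soil in separate pint cups for preemergence testing. Treated cups were kept on greenhouse benches, watered and maintained conventionally. Four to five weeks after treatment, each cup was visually rated on a 0-9 scale against a control.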

[7] = test system: CYPERUS SEROTINUS, ROTTB.; test: Preemergence weed control under flooded paddy conditions, CYPSE (Flatsedge); conditions: pre-weed
Procedure, shortened: as §1

[8] = test system: CYPERUS IRIA; test: Preemergence weed control under flooded paddy conditions, CYPIR (Rice Flatsedge); conditions: pre-weed
Procedure, shortened: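 Seeds or propagating organs of rice flatsedge were planted in the top 0.5 cm of silt loam soil in 32 oz. plastic containers, 10.5 cm across and without drainage holes. Water was kept 1.5 to 3 cm above the soil throughout. Treated containers were kept on greenhouse benches, and herbicidal effect was visually rated on a 0-9 scale against a control.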

[9] = test system: SAGITTARIA PYGMAEA, L.; test: Preemergence weed control under flooded paddy conditions, SAGPY (Arrowhead (Pygmaea)); conditions: pre-weed
Procedure, shortened: as §1

[10] = test system: […], PRESL.; test: Preemergence weed control under flooded paddy conditions, MOOVA (Monochoria); conditions: pre-weed
Procedure, shortened: as §1

Row | Structure (SMILES) | ORYSAT ([1]; Rate 0.016 kg/ha) | ORYSAT ([1]; Rate 0.063 kg/ha) | ORYSAT ([1]; Rate 0.125 kg/ha) | ECHORC ([3]; Rate 0.031 kg/ha) | ECHORC ([3]; Rate 0.063 kg/ha) | ECHORC ([3]; Rate 0.125 kg/ha) | ECHORC ([3]; Rate 0.250 kg/ha) | CASOB ([4]; Rate 0.016 kg/ha) | CASOB ([4]; Rate 0.063 kg/ha) | CASOB ([4]; Rate 0.125 kg/ha) | GLXMAW ([5]; Rate 0.016 kg/ha) | GLXMAW ([5]; Rate 0.063 kg/ha) | GLXMAW ([5]; Rate 0.125 kg/ha) | ORYSAT ([1]; Rate 0.250 kg/ha) | ORYSAT ([1]; Rate 0.500 kg/ha) | CYPSE ([7]; Rate 0.250 kg/ha) | SAGPY ([9]; Rate 0.250 kg/ha) | CASOB ([4]; Rate 0.250 kg/ha) | CASOB ([4]; Rate 0.500 kg/ha) | GLXMAW ([5]; Rate 0.250 kg/ha) | other results
1 | Cn1c(=O)[nH]c(=O)n(-c2cc(Oc3c(F)cc(C(F)(F)F)cc3Cl)ccc2[N+](=O)[O-])c1=O [D, reference compound] | 3.8 | 4.8 | 5.3 | 9.0 | 9.0 | 9.0 | 9.0 | 4.3 | 6.0 | 9.0 | 4.2 | 4.7 | 5.5 |  |  |  |  |  |  |  | ORYSAT ([1]; Rate 0.031 kg/ha): 4.3; ZEAMX ([2]; Rate 0.031 kg/ha): 0.0; ZEAMX ([2]; Rate 0.063 kg/ha): 0.0; ZEAMX ([2]; Rate 0.125 kg/ha): 0.0; ZEAMX ([2]; Rate 0.250 kg/ha): 0.0; CASOB ([4]; Rate 0.008 kg/ha): 1.0; CASOB ([4]; Rate 0.031 kg/ha): 5.0; GLXMAW ([5]; Rate 0.008 kg/ha): 2.5; GLXMAW ([5]; Rate 0.031 kg/ha): 4.5
2 | Cn1c(=O)[nH]c(=O)n(-c2cccc(Oc3ccc(C(F)(F)F)cc3Cl)c2)c1=O [E, reference compound] |  | 1.5 | 2.0 |  |  |  | 0.0 |  | 2.0 | 3.0 |  | 2.0 | 2.5 | 2.0 | 3.0 | 0.0 | 0.0 | 5.0 | 2.0 | 3.0 | CASOB ([6]; Rate 0.125 kg/ha): 0.0; CASOB ([6]; Rate 0.250 kg/ha): 0.0; CASOB ([6]; Rate 0.500 kg/ha): 0.0; CASOB ([6]; Rate 1.000 kg/ha): 0.0; CYPSE ([7]; Rate 0.500 kg/ha): 0.0; CYPSE ([7]; Rate 1.000 kg/ha): 0.0; CYPIR ([8]; Rate 0.250 kg/ha): 0.0; CYPIR ([8]; Rate 0.500 kg/ha): 0.0; CYPIR ([8]; Rate 1.000 kg/ha): 0.0; ECHORC ([3]; Rate 0.500 kg/ha): 0.0; ECHORC ([3]; Rate 1.000 kg/ha): 0.0; SAGPY ([9]; Rate 0.500 kg/ha): 0.0; SAGPY ([9]; Rate 1.000 kg/ha): 0.0; MOOVA ([10]; Rate 0.250 kg/ha): 0.0; MOOVA ([10]; Rate 0.500 kg/ha): 0.0; MOOVA ([10]; Rate 1.000 kg/ha): 0.0; GLXMAW ([5]; Rate 0.500 kg/ha): 3.5
3 | Cn1c(=O)[nH]c(=O)n(-c2cc(Oc3ccc(C(F)(F)F)cc3Cl)ccc2Cl)c1=O [F, reference compound] | 1.5 | 2.5 | 3.0 | 0.0 | 0.0 | 0.0 | 0.0 | 2.0 | 5.0 | 8.0 | 3.5 | 4.5 | 4.0 | 3.0 | 3.0 | 0.0 | 0.0 | 9.0 | 6.5 | 5.5 | ORYSAT ([1]; Rate 0.032 kg/ha): 1.5; CYPSE ([7]; Rate 0.031 kg/ha): 0.0; CYPSE ([7]; Rate 0.063 kg/ha): 0.0; CYPSE ([7]; Rate 0.125 kg/ha): 0.0; SAGPY ([9]; Rate 0.031 kg/ha): 0.0; SAGPY ([9]; Rate 0.063 kg/ha): 0.0; SAGPY ([9]; Rate 0.125 kg/ha): 0.0; CASOB ([4]; Rate 0.032 kg/ha): 4.0; GLXMAW ([5]; Rate 0.032 kg/ha): 3.5; GLXMAW ([5]; Rate 0.500 kg/ha): 5.5

Reference: patent EP0745595A1, “3-(3-Aryloxyphenyl)-1-(substituted methyl)-s-triazine-2,4,6-oxo or thiotrione herbicidal agents” (American Cyanamid Company, priority 1995, dated 1996)
